Series [1] in a line: Thermodynamic solubility in PBS (pH 7.4). The class given is physicochemical. As to conditions: aqueous buffer, thermodynamic from solid.
Series [2] deals with T1, rabbit angiotensin-converting enzyme (ACE) (Oryctolagus cuniculus, UniProt P12822).
T1 construct: purchased Sigma
T1 sequence (P12822 34-1310): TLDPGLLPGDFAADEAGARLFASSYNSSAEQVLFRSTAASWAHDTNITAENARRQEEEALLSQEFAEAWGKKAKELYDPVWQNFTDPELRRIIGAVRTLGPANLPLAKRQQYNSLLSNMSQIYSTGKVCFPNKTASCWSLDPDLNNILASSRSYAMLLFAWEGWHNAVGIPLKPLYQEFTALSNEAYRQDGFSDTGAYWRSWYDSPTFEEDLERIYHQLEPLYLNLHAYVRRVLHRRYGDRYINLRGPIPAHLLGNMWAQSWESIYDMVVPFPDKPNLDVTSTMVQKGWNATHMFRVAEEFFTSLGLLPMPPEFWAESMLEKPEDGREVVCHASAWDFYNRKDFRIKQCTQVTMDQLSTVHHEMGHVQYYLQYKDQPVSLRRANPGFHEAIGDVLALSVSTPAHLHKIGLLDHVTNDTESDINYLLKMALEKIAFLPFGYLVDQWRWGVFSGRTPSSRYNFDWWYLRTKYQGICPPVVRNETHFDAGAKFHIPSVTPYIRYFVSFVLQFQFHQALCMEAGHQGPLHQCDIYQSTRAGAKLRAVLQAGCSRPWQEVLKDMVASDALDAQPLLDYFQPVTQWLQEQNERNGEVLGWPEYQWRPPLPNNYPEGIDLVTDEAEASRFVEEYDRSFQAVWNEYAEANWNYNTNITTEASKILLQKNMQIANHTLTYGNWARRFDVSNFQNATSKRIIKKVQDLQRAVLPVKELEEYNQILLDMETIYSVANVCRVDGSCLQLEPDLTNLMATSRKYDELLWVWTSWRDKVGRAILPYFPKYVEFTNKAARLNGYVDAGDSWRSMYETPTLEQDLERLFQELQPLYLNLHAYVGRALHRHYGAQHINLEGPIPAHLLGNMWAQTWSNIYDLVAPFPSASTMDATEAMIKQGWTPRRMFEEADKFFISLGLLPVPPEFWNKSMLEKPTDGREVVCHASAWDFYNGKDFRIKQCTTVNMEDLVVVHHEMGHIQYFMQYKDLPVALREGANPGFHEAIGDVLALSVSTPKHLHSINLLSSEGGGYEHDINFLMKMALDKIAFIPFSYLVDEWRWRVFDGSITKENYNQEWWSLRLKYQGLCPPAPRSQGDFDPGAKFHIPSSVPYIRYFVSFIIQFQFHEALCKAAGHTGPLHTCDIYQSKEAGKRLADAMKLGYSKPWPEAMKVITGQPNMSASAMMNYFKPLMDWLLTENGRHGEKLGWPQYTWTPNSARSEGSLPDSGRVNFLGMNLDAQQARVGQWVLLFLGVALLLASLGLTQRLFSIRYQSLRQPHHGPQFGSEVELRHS
The series can be described thus: ACE selectivity assay. The class given is biochemical. On the procedure:
Selectivity of compound inhibition was evaluated against other proteases at concentrations between 0.4 and 200 μM. Activity against rabbit angiotensin-converting enzyme (ACE, Sigma) was assessed using 10 μM fluorogenic substrate Abz-Phe-Arg-Lys(Dnp)-P (Enzo Life Sciences) in 100 mM Tris-HCl pH 7, 50 mM NaCl, 10 μM Zn SO4. Activity against human matrix metalloproteases (MMP)-2 and MMP-9 was assessed in 50 mM HEPES pH 7.5, 10 mM CaCl2, 0.01% Triton X-100 using 4 μM fluorogenic substrate Mca-Pro-Leu-Gly-Leu-Dpa-Ala-Arg-NH2 (Enzo Life Sciences). Activity against MMP-1 and MMP-13 was assessed in 25 mM HEPES pH 7.5, 100 mM NaCl, 100 mM CaCl2, 0.0005% Brij using 7.5 μM fluorogenic substrate Mca-Lys-Pro-Leu-Gly-Leu-Dpa-Ala-Arg-NH2 (Sigma) for MMP-1 and 1.25 μM fluorogenic substrate Mca-Pro-Cha-Gly-Nva-His-Ala-Dpa-NH2 (Millipore) for MMP-13. Activity against human neutrophil elastase (HNE, Enzo Life Sciences) was assessed in 100 mM HEPES pH 7.5, 500 mM NaCl, 0.01% of Triton X-100 using 100 μM fluorogenic substrate MeOSuc-AAPV-AMC (Enzo Life Sciences).

For series [3], the target named is T2, LasB N68S, T120I, A122T, S241G, S436L (Pseudomonas aeruginosa, UniProt P14756, S241G/S436L).
T2 construct: Most changes were identified in the mature peptide, however some occurred in the propeptide domain; endogenous in cells; host or cells: P. aeruginosa clinical CF isolate, culture supernatant
The series can be described thus: LasB variant inhibition, culture supernatant: N68S, T120I, A122T, S241G, S436L. It is filed as biochemical, P. aeruginosa. An excerpt: Compounds 12 and 16 were discovered as a result of optimizing potency against the LasB protein expressed from the wild-type (WT) reference strain P. aeruginosa PAO1. To understand the relative prevalence of the WT LasB protein versus other variants in clinical respiratory P. aeruginosa strains, the full-length lasB gene was amplified by PCR from 255 clinical isolates (obtained from CF sputum samples). […] Most changes were identified in the mature peptide, however some occurred in the propeptide domain, which could affect LasB processing (marked in italics in Table 4).
LasB inhibition assays were performed using purified LasB enzyme (1 ng/well) for compound screening or using culture supernatants (prepared as described in the ECR assay) for testing LasB variants. Hydrolysis of the fluorogenic peptide substrate 2-aminobenzoyl-Ala-Gly-Leu-Ala-4-nitrobenzylamide (Abz-AGLA-Nba; Peptide International) in 50 mM Tris-HCl (pH 7.4), supplemented with 2.5 mM CaCl2 was followed using an Envision microplate reader (PerkinElmer) at 315 nm excitation and 430 nm emission. […] IC50 values were determined from Hill plots using Dotmatics Studies ELN software. For the mechanism of inhibition studies, hydrolysis rates were measured in the presence of variable concentrations of substrate and inhibitor, and the inhibition constant (Ki) was determined using Dixon plot analysis.[31]

Drawing on article PMC9926489, “Chemical Optimization of Selective Pseudomonas aeruginosa LasB Elastase Inhibitors and Their Impact on LasB-Mediated Activation of IL-1β in Cellular and Animal Infection Models” (ACS Infectious Diseases, 2023), this text covers solubility and IC50 for two compounds.

Molecules are shown by their SMILES. Read-outs that look alike come from different tables or passages of the source.

T2 sequence (P14756 198-498, looked up, stated change not applied): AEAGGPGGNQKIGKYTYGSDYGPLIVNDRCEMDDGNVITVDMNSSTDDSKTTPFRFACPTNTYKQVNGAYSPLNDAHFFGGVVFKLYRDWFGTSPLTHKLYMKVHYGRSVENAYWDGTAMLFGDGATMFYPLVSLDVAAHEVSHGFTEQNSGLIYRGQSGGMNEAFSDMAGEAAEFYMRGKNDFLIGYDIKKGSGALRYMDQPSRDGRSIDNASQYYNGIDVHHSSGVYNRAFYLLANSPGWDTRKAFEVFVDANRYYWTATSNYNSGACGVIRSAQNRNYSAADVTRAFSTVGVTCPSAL

With `COc1cc2sc(CNC(=O)C3(CC(=O)O)Cc4ccccc4C3)nc2cc1OCCC[N+](C)(C)C` [Compound 12], the solubility in series [1] came out at 17.7 mg/mL. Moreover, the IC50 in series [2] (rabbit ACE, read-out: selectivity IC50, ACE) is above 200 µM; in series [3], 267 nM.
In turn, `COc1cc2sc(CNC(=O)C3(CC(=O)O)Cc4cc(F)c(F)cc4C3)nc2cc1OCCC[N+](C)(CCO)CCO` [Compound 16] registered a solubility in series [1] of 15.1 mg/mL. Also, the half-inhibitory concentration (IC50) in series [2] is above 200 µM; in series [3], 253 nM.

What is called solubility is the concentration that dissolves in the medium under given conditions. Broadly, the IC50 is the concentration at which inhibition is half-maximal.
